In article PMC6880814, “Skeletocutins M–Q: biologically active compounds from the fruiting bodies of the basidiomycete Skeletocutis sp. collected in Africa” (Beilstein Journal of Organic Chemistry, 2019):
≈ marks a conversion by molar mass, not a printed value. Where “and” joins values, the source holds several entries; their conditions need not be identical. Identical values can stand only once. Entries after “also recorded” stand apart in the source; their conditions may differ.

Assays:
[1] = test system: surface-bound aminopeptidases of KB3.1 cells; assay: Inhibition of ʟ-Leu-AMC hydrolysis (leucine aminopeptidases); format: cell-based; settings: for IC50, inhibition of ʟ-Leu-AMC hydrolysis: KB3.1 cells
Method: Hydrolysis of ʟ-Leu-AMC by the surface-bound aminopeptidases of KB3.1 cells was assayed based on the method from Weber and co-workers with slight modifications. KB3.1 cells were grown as monolayer cultures in Dulbecco's modified Eagle's medium (DMEM) containing 10% fetal calf serum at 37 °C in 24-well multidishes. After three days, the confluent monolayers were washed twice with phosphate buffered saline (PBS), and the reaction mixture (450 µL Hanks' buffer at pH 7.2 containing 50 or 100 µM substrate ʟ-Leu-AMC, compounds dissolved in 50 µL DMSO) was added. After being incubated at 23 °C for 30 min, 1 mL cold 0.2 M glycine buffer at pH 10.5 was added. The amount of hydrolyzed 7-amino-4-methylcoumarin (AMC) was measured in a Tecan Infinite M200 PRO fluorescence spectrophotometer (excitation and emission at λ = 365 and 440 nm, respectively). Bestatin [12] and DMSO were used as positive and negative control, respectively.

S. aureus DSM1104 = assay: Inhibition of biofilm formation; format: cell-based, Staphylococcus aureus; parameters: biofilm inhibition results from plate reader: reference not given here; settings: for biofilm inhibition results from plate reader: raw reading, replications 1-3; for inhibition of biofilm formation (in words): S. aureus
Method: The assay was performed in Falcon® 96-well flat bottom plates as previously described. […] Methanol was used as negative control, while tetracycline was used as positive control. All experiments were made in triplicates.

[2] = test system: leucine aminopeptidase in HeLa S3 cells; parameters: method as in PMID 1620745; settings: 50 μM substrate concentration; cited from earlier work
[3] = test system: several Gram-positive bacteria (Bacillus subtilis, S. aureus, MRSA, Micrococcus luteus); parameters: method as in PMID 31310114; settings: B. subtilis, M. luteus; cited from earlier work
[4] = test system: surface-bound aminopeptidases of KB3.1 cells; assay: Inhibition of ʟ-Leu-AMC hydrolysis (leucine aminopeptidases); format: cell-based; settings: at 50 and 110 µM substrate concentration

| SMILES | IC50, inhibition of ʟ-Leu-AMC hydrolysis ([1]; ʟ-Leu-AMC (50 µM)) | IC50, inhibition of ʟ-Leu-AMC hydrolysis ([1]; ʟ-Leu-AMC (100 µM)) | IC50, inhibition of ʟ-Leu-AMC hydrolysis [4] | ʟ-Leu-AMC inhibition assay (in words) [1] | biofilm inhibition results from plate reader (S. aureus DSM1104; 8 µg/ml) | biofilm inhibition results from plate reader (S. aureus DSM1104; 16 µg/ml) | biofilm inhibition results from plate reader (S. aureus DSM1104; 32 µg/ml) | biofilm inhibition results from plate reader (S. aureus DSM1104; 64 µg/ml) | biofilm inhibition results from plate reader (S. aureus DSM1104; 128 µg/ml) | biofilm inhibition results from plate reader (S. aureus DSM1104; 256 µg/ml) | IC50, similar assay against HeLa S3 cells [2] | activity against Gram-positive bacteria (in words) [3] | inhibition of biofilm formation (in words) (S. aureus DSM1104) |
| --- | --- | --- | --- | --- | --- | --- | --- | --- | --- | --- | --- | --- | --- |
| CC1=C(CCCCCCCCCCCCCCCCCCCCC2=C(C)C(=O)OC2=O)C(=O)OC1=O [Compound 2, skeletocutin N] | – | – | – | – | 3.048 and 2.841 and 2.718 | 2.916 and 2.987 and 2.995 | 3.176 and 3.059 and 3.016 | 2.823 and 3.791 and 2.979 | 3.623 and 4.381 and 3.14 | 4.44 and 4.077 and 4.364 | – | – | – |
| CN(C)[C@@H]1C(O)=C(C(N)=O)C(=O)[C@@]2(O)C(O)=C3C(=O)c4c(O)cccc4[C@@](C)(O)[C@H]3C[C@@H]12 [Tetracycline, reference compound] | – | – | – | – | – | – | 1.107 and 1.315 and 1.404 and 1.155 and 0.918 and 0.791 | 0.885 and 0.917 and 0.836 and 0.83 and 0.627 and 0.95 | 0.622 and 0.527 and 0.478 and 0.693 and 0.655 and 0.765 | 0.462 and 0.414 and 0.487 and 0.644 and 0.444 and 0.498 | – | – | – |
| CC(C)C[C@H](NC(=O)[C@@H](O)[C@H](N)Cc1ccccc1)C(=O)O [Bestatin, reference compound] | 10.8 µg/mL | 40.9 µg/mL | – | – | – | – | – | – | – | – | – | – | – |
| CC1=C(CCCCCCCCCCCCCCCCCCC2=C(C)C(=O)OC2=O)C(=O)OC1=O [Compound 1, 1,18-bis[4′-methyl-2′,5′-dioxo-3′-furyl]octadecane] | – | – | – | – | 3.282 and 3.031 and 2.758 | 3.706 and 3.472 and 3.059 | 3.45 and 3.219 and 3.38 | 3.207 and 4.69 and 3.419 | 3.365 and 3.804 and 3.615 | 4.909 and 5.651 and 4.54 | – | – | – |

Now from value to compound, other results behind:

| IC50, inhibition of ʟ-Leu-AMC hydrolysis ([1]; ʟ-Leu-AMC (50 µM)) | IC50, inhibition of ʟ-Leu-AMC hydrolysis ([1]; ʟ-Leu-AMC (100 µM)) | IC50, inhibition of ʟ-Leu-AMC hydrolysis [4] | SMILES | ʟ-Leu-AMC inhibition assay (in words) [1] | biofilm inhibition results from plate reader (S. aureus DSM1104; 8 µg/ml) | biofilm inhibition results from plate reader (S. aureus DSM1104; 16 µg/ml) | biofilm inhibition results from plate reader (S. aureus DSM1104; 32 µg/ml) | biofilm inhibition results from plate reader (S. aureus DSM1104; 64 µg/ml) | biofilm inhibition results from plate reader (S. aureus DSM1104; 128 µg/ml) | biofilm inhibition results from plate reader (S. aureus DSM1104; 256 µg/ml) | IC50, similar assay against HeLa S3 cells [2] | activity against Gram-positive bacteria (in words) [3] | inhibition of biofilm formation (in words) (S. aureus DSM1104) |
| --- | --- | --- | --- | --- | --- | --- | --- | --- | --- | --- | --- | --- | --- |
| 71.1 µg/mL | 102.3 µg/mL | – | CC1=C(CCCCCCCCCCCCCCCCC/C=C(\C(=O)O)C(CC(=O)O)C(=O)O)C(=O)OC1=O (stereo not drawn) [Compound 4, (Z)-21-(4’-methyl-2’,5’-dioxo-2’,5’-dihydrofuran-3’-yl)henicos-3-ene-1,2,3-tricarboxylic acid] | performed moderately | 4.243 and 3.452 and 3.554 | 4.47 and 3.878 and 4.114 | 4.702 and 3.439 and 4.271 | 3.957 and 3.887 and 3.524 | 4.03 and 4.115 and 4.224 | 6 and 5.066 and 4.841 | – | – | – |
| 138.4 µg/mL | – | – | CC1=C(CCCCCCCCCCCCCCCCC2=C(C)C(=O)OC2=O)C(=O)OC1=O [Compound 6, tyromycin A] | – | 3.766 and 3.772 and 3.586 | 3.612 and 3.954 and 4.007 | 3.328 and 3.954 and 3.188 | 3.105 and 3.723 and 3.478 | 3.861 and 2.858 and 2.819 | 4.54 and 3.949 and 6 | 31 µg/mL (≈ 69.4 µM) | active | – |
| 153.2 µg/mL | 225.3 µg/mL | > 80 µg/mL | CC1=C(CCCCCCCCCCCCCCCCCCC(C(=O)O)C(CC(=O)O)C(=O)O)C(=O)OC1=O (stereo not drawn) [Compound 5, 21-(4’-methyl-2’,5’-dioxo-2’,5’-dihydrofuran-3’-yl)henicosane-1,2,3-tricarboxylic acid] | – | 3.444 and 2.956 and 3.704 | 3.633 and 3.438 and 3.879 | 4.452 and 3.838 and 3.757 | 3.708 and 3.627 and 3.623 | 3.871 and 3.836 and 3.597 | 3.822 and 3.87 and 3.988 | – | – | weakly inhibit |
| 89.6 µg/mL | 130.4 µg/mL | > 80 µg/mL | CC1=C(CCCCCCCCCCCCCCCCCC/C=C(\CC(=O)O)C(=O)O)C(=O)OC1=O [Compound 3, (E)-2-(19-(4’-methyl-2’,5’-dioxo-2’,5’-dihydrofuran-3’-yl)nonadecylidene)butanedioic acid] | performed moderately | 2.88 and 3.631 and 3.132 | 2.837 and 3.385 and 3.2 | 2.875 and 3.534 and 3.458 | 3.373 and 3.63 and 3.041 | 3.752 and 3.854 and 3.496 | 1.742 and 2.419 and 2.26 | – | – | moderately inhibited; also recorded: weakly inhibit |
